target: T1, Kinesin-like protein KIF18A (Homo sapiens, UniProt Q8NI77); assay: Inhibitory Activity Assay
T1 sequence (Q8NI77 whole entry): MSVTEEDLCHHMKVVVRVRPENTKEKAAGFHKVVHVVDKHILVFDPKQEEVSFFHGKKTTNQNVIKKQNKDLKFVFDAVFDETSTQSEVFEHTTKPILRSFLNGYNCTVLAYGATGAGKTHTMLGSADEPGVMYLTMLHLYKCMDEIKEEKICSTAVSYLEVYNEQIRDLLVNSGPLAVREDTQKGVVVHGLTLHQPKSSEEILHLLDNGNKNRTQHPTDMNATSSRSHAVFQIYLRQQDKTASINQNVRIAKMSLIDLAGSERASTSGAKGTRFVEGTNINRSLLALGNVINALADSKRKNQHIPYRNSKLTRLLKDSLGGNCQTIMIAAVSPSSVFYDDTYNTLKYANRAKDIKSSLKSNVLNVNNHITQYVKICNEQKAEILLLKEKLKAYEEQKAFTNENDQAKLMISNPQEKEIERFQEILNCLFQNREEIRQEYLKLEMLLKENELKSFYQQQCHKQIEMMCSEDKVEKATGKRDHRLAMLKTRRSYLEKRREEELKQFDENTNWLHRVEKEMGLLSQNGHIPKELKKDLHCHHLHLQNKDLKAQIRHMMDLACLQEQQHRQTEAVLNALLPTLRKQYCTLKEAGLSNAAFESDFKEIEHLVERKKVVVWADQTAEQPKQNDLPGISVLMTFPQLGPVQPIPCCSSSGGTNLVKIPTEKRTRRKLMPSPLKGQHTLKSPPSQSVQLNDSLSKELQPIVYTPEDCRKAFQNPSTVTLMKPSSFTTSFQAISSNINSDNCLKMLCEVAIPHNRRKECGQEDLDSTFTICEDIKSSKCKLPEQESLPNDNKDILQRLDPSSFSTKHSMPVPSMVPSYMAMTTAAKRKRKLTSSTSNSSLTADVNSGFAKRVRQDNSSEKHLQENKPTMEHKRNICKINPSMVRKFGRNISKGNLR
Description: In this experiment, an ADP-Glo kit was used to detect the inhibitory activity of the compounds against KIF18A. Each compound was prepared into a 10 mM stock solution with DMSO, which was then diluted at 1:5 to obtain 9 gradients with the initial final concentration set at 10 μM. Meanwhile, a control group and a blank group were also set up. The reaction buffer consisted of 15 mM Tris (pH 7.5), 10 mM MgCl2, and 0.01% Pluronic F-68. […] Finally, the ADP-Glo reagent was added to detect the luminescence intensity, where the luminescence intensity is directly proportional to the ADP content. Inhibition rate (%)=(1−Sample signal)/DMSO signal×100. Sample signal is the value of the compound group, and DMSO signal is the value of the DMSO control group. Then, the inhibition rate at each concentration was calculated, and the IC50 was determined by fitting using the GraphPadPrism 7.0 software.

| SMILES | IC50 |
| --- | --- |
| CS(=O)(=O)Nc1ccc(C(=O)Nc2cn3ccnc3c(N3CCC(F)(F)CC3)n2)c(N2CC3CCC(C3)C2)c1 [US20250382298, Compound 19] | 26.8 nM |
| CS(=O)(=O)Nc1ccc(C(=O)Nc2cc3nccnc3c(N3CCC(F)(F)CC3)n2)c(N2CC3CCC(C3)C2)c1 [US20250382298, Compound 72] | 134 nM |
| O=C(Nc1cn2c(F)cnc2c(N2CCC(F)(F)CC2)n1)c1ccc(NS(=O)(=O)CCO)cc1N1CCC2(CC1)CC2 [US20250382298, Compound 34] | 44.3 nM |
| CS(=O)(=O)Nc1ccc(C(=O)Nc2cc3cccnc3c(N3CCC(F)(F)CC3)n2)c(N2CC3CCC(C3)C2)c1 [US20250382298, Compound 33] | 111 nM |
| O=C(Nc1cn2c(F)cnc2c(N2CCC(F)(F)CC2)n1)c1ccc(NS(=O)(=O)CCO)cc1N1CC2CCC(C2)C1 [US20250382298, Compound 51] | 10 nM |
| O=C(Nc1cn2ccnc2c(N2CCC3(CC2)CC3)n1)c1ccc(NS(=O)(=O)CCO)cc1N1CCC2(CC1)CC2 [US20250382298, Compound 31] | 55.3 nM |
| CS(=O)(=O)Nc1ccc(C(=O)Nc2cc3cccnc3c(N3CCC(F)(F)CC3)n2)c(N2CCC3(CC2)CC3)c1 [US20250382298, Compound 32] | 117 nM |
| O=C(Nc1cc2cccnc2c(N2CCC(F)(F)CC2)n1)c1ccc(NS(=O)(=O)CCO)cc1N1CCC2(CC1)CC2 [US20250382298, Compound 21] | 10.7 nM |
| O=C(Nc1cc2nccnc2c(N2CCC(F)(F)CC2)n1)c1ccc(NS(=O)(=O)CCO)cc1N1CCC2(CC1)CC2 [US20250382298, Compound 39] | 32.2 nM |

Source: BindingDB's records for patent US20250382298 (Suzhou Genhouse Bio Co., 2025)
